{
  "source": "patent US11931327B2",
  "about": "“Drug for retinal degenerative disease associated with photoreceptor degeneration” (Daiichi Sankyo Company, Limited, priority 2017, dated 2024)",
  "key": {"[1]": {"system": "transgenic zebrafish Tg (rho: NTR-NanoLuc, my17: DsRed2)", "experiment": "animal or person", "text": "First, the present inventors constructed a model for evaluating induction of rod cell regeneration. […] Transgenic zebrafish Tg (rho: NTR-NanoLuc, my17: DsRed2), in which a fluorescent protein, DsRed2, which is cardiac-tissue specifically expressed by cardiomyocyte-specific my17 promoter, can be simply detected by using dsRed2 as a marker under a fluorescence stereomicroscope. In the transgenic zebrafish, in addition to cardiac tissue specific expression of DsRed2, a reductase, i.e., nitroreductase (NTR), and a photoprotein, i.e., NanoLuc fusion protein (NTR-NanoLuc), are expressed by a rod-cell specific rho promoter, in a rod-cell specific manner. […] However, if, a prodrug, metronidazole, is added, non-toxic metronidazole is converted to a toxic radical by NTR. […] After rod cells are ablated by treatment with metronidazole, the transgenic zebrafish were washed with rearing water to remove the toxic radical. […] In the transgenic zebrafish, rod cells can be quantitatively determined by measuring the amount of luminescence derived from rod-cell-specific NanoLuc expression. After the rod cells are ablated, the transgenic zebrafish are exposed to a test compound. The activity of the test compound to induce rod-cell regeneration can be quantitatively evaluated by measuring the amount of luminescence derived from NanoLuc and specific to rod cells.\n1) On the day before collection of eggs, a pair of male and female zebrafish, i.e., a transgenic fish Tg (rho: NTR-NanoLuc, my17: DsRed2) and a wild type, were placed in a tank for mating and isolated by a divider.\n2) The next morning (8:00-11:00), the divider was removed to allow them to mate with each other. Fertilized eggs were collected. In the evening (16:00-18:00) of the same day, only normally developed fertilized eggs were screened and raised in a plate for growth.\n3) Day 3 after fertilization, juvenile fish were transferred to rearing water, which contained 10 mM metronidazole (Sigma-Aldrich, Japan) and 1% DMSO (Wako Pure Chemical Industries Ltd.), (prepared by dissolving 60 mg of instant ocean (Napco Limited (Japan)) in 1 L of distilled water), and raised in dark conditions for 24 hours. In this manner, ablation was specifically applied to the rod cells of the juvenile fish. In contrast, non-ablated juvenile fish, which were to be used as a control, were transferred to a tank containing rearing water, which contained a 1% DMSO solution, and raised.\n5) Ablated juvenile fish of 4 days after fertilization were washed well with Egg water and dispensed in wells of the assay plate containing a compound together with 100 μL of Egg water, such that 2 juvenile fish individuals were present per well.\n6) After the juvenile fish were raised for 2 days, […] of Egg water was removed and ethyl 3-aminobenzoate methanesulfonate (Sigma-Aldrich Japan; 0.4 mg/mL, 10 μL) was added to euthanize the fish.\n7) Nano-Glo (registered trademark) Luciferase assay Substrate (Promega Corporation) was added to Nano-Glo (registered trademark) Luciferase assay buffer (Promega Corporation) in a ratio of 1:50 and 100 μL of the resultant solution was added to each of the wells.\n8) Shaking was carried out by use of BIO-Mixer (Biotech Japan Co., Ltd.) for one hour and luminescence of NanoLuc (registered trademark) was measured by use of EnVision (PerkinElmer Co., Ltd., Japan).\nIndividual concentration groups were compared to the DMSO control group by the Dunnett's test."}, "[2]": {"system": "Pathological zebrafish 1: Tg (rho: EGFP) crossed with Tg (rho: hRHO (Q344X), omp: EGFP)", "experiment": "Rod-cell regeneration effect in retinitis pigmentosa model, EGFP observed by confocal laser microscope", "type": "in vivo", "settings": "1 μM; fish raised 2 days with compound; FIG. 6", "protocol": "Pathological model fish, in which rod-cell regeneration can be observed, were prepared using zebrafish known as a retinitis pigmentosa model. The effect of a compound was confirmed in accordance with the following procedure. As the compound to be evaluated, TTNPB (Sigma-Aldrich, Cat. No. T3757-10MG), was used.\n1) To prepare a pathological model, in which rod-cell regeneration can be observed, zebrafish Tg (rho: EGFP) (Hamaoka T1, Takechi M, Chinen A et al., Visualization of rod photoreceptor development using GFP-transgenic zebrafish. Genesis. 2002; 34 (3): 215-220.; used as a reporter fish of rod cells) were crossed with zebrafish Tg (rho: hRHO (Q344X), omp: EGFP), which is a name under another nomenclature system of a retinitis pigmentosa model, i.e., zebrafish RH1: hRhodopsin (Q344X) (Nakao T, Tsujikawa M, Notomi S, Ikeda Y, Nishida K., “The role of mislocalized phototransduction in photoreceptor cell death of retinitis pigmentosa.”, PLoS One., 2012; 7 (4): e32472). The zebrafish obtained were specified as zebrafish (Pathological zebrafish 1). Control zebrafish (non-pathological zebrafish) were obtained by crossing zebrafish Tg (rho: EGFP) with wild-type zebrafish. […]\nLuminescence of EGFP specifically expressed in rod cells was observed by a confocal laser microscope in the following procedure. […]"}, "[3]": {"system": "pathological zebrafish 2: Tg (rho: NTR-NanoLuc, my17: DsRed2) crossed with Tg (rho: hRHO (Q344X), omp: EGFP)", "experiment": "Rod-cell regeneration effect in retinitis pigmentosa model, quantitative evaluation by NanoLuc luminescence", "type": "in vivo", "settings": "N=8 per concentration; Dunnett's test; FIG. 7", "protocol": "Pathological model zebrafish, in which rod-cell regeneration can be quantitatively evaluated, were newly prepared using zebrafish known as a retinitis pigmentosa model. The effect of compounds was quantitatively verified in accordance with the following procedure.\n1) Quantitative evaluation of rod-cell regeneration was carried out by zebrafish (pathological zebrafish 2) obtained by crossing transgenic Tg (rho: NTR-NanoLuc, my17: DsRed2) and Tg (rho: hRHO (Q344X), omp: EGFP).\nFertilized eggs were collected.\nA screening test was repeated 8 times (N=8) at each concentration.\n2) After shaking for one hour using BIO-Mixer, the luminescence from NanoLuc (registered trademark) was measured by use of EnVision."}},
  "data": [
    {"smiles": "C/C(=C\\c1ccc(C(=O)O)cc1)c1ccc2c(c1)C(C)(C)CCC2(C)C", "note": "[TTNPB, 4-[(E)-2-(5,6,7,8-tetrahydro-5,5,8,8-tetramethyl-2-naphthalenyl)-1-propenyl]benzoic acid]", "values": [
      {"measurement": "rod-cell regeneration induction activity compared to the DMSO control", "setting": "[1]; Examples 3 and 4, TTNPB 0.3, 1, 3, 10 and 30 μM, N=4, RA and BMS493 N=8, Dunnett's test", "value": "statistically significant rod-cell regeneration induction activity at all concentrations"},
      {"measurement": "concentration at which the medicinal effect already reached saturation", "setting": "[1]; minimum concentration tested, range 0.3-30 μM", "value": "≤ 0.3", "unit": "µM"},
      {"measurement": "Activation (%)", "setting": "[1]; screening, 2.5 μM, relative to average of DMSO control = 100", "value": "≥ 150", "unit": "%"},
      {"measurement": "number of rod cells compared to pathological fish untreated with drug", "setting": "[2]", "value": "Recovery in the number of rod cells was confirmed"},
      {"measurement": "regeneration of rod cells in the retinitis pigmentosa model (luminescence, words)", "setting": "[3]", "value": "statistically significant regeneration of rod cells in a dose dependent manner"}
    ]}
  ]
}
